Patent US9365584B2, “Thieno [2,3-B] pyridinedione activators of AMPK and therapeutic uses thereof” (Poxel, priority 2009, dated 2016)

Test system: AMPK
Assay: AMPK enzyme activity assay (Delfia technology, AMARA peptide substrate)
Format: biochemical
Conditions: compound at 30 μM vs AMP at 200 μM
Outline: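 Value is the ratio of compound (30 μM) to AMP (200 μM) response, each as % of basal control. Phosphorylation of the AMARA peptide after AMPK addition was read by Delfia with an anti-phosphoserine antibody.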

| Structure (SMILES) | Activity: Ratio between the % of control (basal activity) of compound of formula (1) at 30 μM and the % of control (basal activity) of AMP (natural substrate) at 200 μM |
| --- | --- |
| O=C1Nc2scc(-c3ccc(Br)cc3)c2C(=O)C1(F)c1ccncc1 (stereo not shown) [No 124, 3-(4-bromophenyl)-5-fluoro-5-(4-pyridyl)-7H-thieno[2,3-b]pyridine-4,6-dione] | B (50%≦B<75%) |
| O=C1Nc2scc(-c3ccccc3Br)c2C(=O)C1(F)c1ccccc1 (stereo not shown) [No 125, 3-(2-bromophenyl)-5-fluoro-5-phenyl-7H-thieno[2,3-b]pyridine-4,6-dione] | A (0%<A<50%) |
| COc1cccc(C2(C)C(=O)Nc3sc(Cl)c(-c4cccc(C)c4)c3C2=O)c1 (stereo not shown) [No 126, 2-chloro-5-(3-methoxyphenyl)-5-methyl-3-(m-tolyl)-7H-thieno[2,3-b]pyridine-4,6-dione] | B (50%≦B<75%) |
| COc1cc(Br)ccc1-c1csc2c1C(=O)C(F)(c1ccccc1)C(=O)N2 (stereo not shown) [No 127, 3-(4-bromo-2-methoxy-phenyl)-5-fluoro-5-phenyl-7H-thieno[2,3-b]pyridine-4,6-dione] | A (0%<A<50%) |
| COc1cc(Br)ccc1-c1c(F)sc2c1C(=O)C(F)(c1ccccc1)C(=O)N2 (stereo not shown) [No 128, 3-(4-bromo-2-methoxy-phenyl)-2,5-difluoro-5-phenyl-7H-thieno[2,3-b]pyridine-4,6-dione] | A (0%<A<50%) |
| Cc1ccccc1-c1csc2c1C(=O)C(F)(c1ccccc1)C(=O)N2 (stereo not shown) [No 129, 5-fluoro-3-(o-tolyl)-5-phenyl-7H-thieno[2,3-b]pyridine-4,6-dione] | B (50%≦B<75%) |
| Cc1ccccc1-c1c(F)sc2c1C(=O)C(F)(c1ccccc1)C(=O)N2 (stereo not shown) [No 130, 2,5-difluoro-3-(o-tolyl)-5-phenyl-7H-thieno[2,3-b]pyridine-4,6-dione] | B (50%≦B<75%) |
| O=C1Nc2scc(-c3ccccc3)c2C(=O)C1(F)c1cccc(C(F)(F)F)c1 (stereo not shown) [No 131, 5-fluoro-3-phenyl-5-[3-(trifluoromethyl)phenyl]-7H-thieno[2,3-b]pyridine-4,6-dione] | B (50%≦B<75%) |
| O=C1Nc2sc(F)c(-c3ccccc3)c2C(=O)C1(F)c1cccc(C(F)(F)F)c1 (stereo not shown) [No 132, 2,5-difluoro-3-phenyl-5-[3-(trifluoromethyl)phenyl]-7H-thieno[2,3-b]pyridine-4,6-dione] | A (0%<A<50%) |
| O=C1Nc2scc(-c3ccccc3)c2C(=O)C1(F)c1ccc(C(F)(F)F)cc1 (stereo not shown) [No 133, 5-fluoro-3-phenyl-5-[4-(trifluoromethyl)phenyl]-7H-thieno[2,3-b]pyridine-4,6-dione] | A (0%<A<50%) |
| O=C1Nc2sc(F)c(-c3ccccc3)c2C(=O)C1(F)c1ccc(C(F)(F)F)cc1 (stereo not shown) [No 134, 2,5-difluoro-3-phenyl-5-[4-(trifluoromethyl)phenyl]-7H-thieno[2,3-b]pyridine-4,6-dione] | A (0%<A<50%) |
| O=C1Nc2scc(-c3ccc(C(F)(F)F)cc3)c2C(=O)C1(F)c1ccccc1 (stereo not shown) [No 135, 5-fluoro-5-phenyl-3-[4-(trifluoromethyl)phenyl]-7H-thieno[2,3-b]pyridine-4,6-dione] | A (0%<A<50%) |
| Cc1cccc(-c2csc3c2C(=O)C(F)(c2ccccc2)C(=O)N3)c1 (stereo not shown) [No 136, 5-fluoro-3-(m-tolyl)-5-phenyl-7H-thieno[2,3-b]pyridine-4,6-dione] | B (50%≦B<75%) |
| Cc1cccc(-c2c(F)sc3c2C(=O)C(F)(c2ccccc2)C(=O)N3)c1 (stereo not shown) [No 137, 2,5-difluoro-3-(m-tolyl)-5-phenyl-7H-thieno[2,3-b]pyridine-4,6-dione] | C (C≧75%) |
| O=C1Nc2scc(-c3ccccc3Cl)c2C(=O)C1(F)c1ccccc1 (stereo not shown) [No 138, 3-(2-chlorophenyl)-5-fluoro-5-phenyl-7H-thieno[2,3-b]pyridine-4,6-dione] | B (50%≦B<75%) |
| CC1(c2cccc(S(C)(=O)=O)c2)C(=O)Nc2sc(Cl)c(-c3ccccc3F)c2C1=O (stereo not shown) [No 139, 2-chloro-3-(2-fluorophenyl)-5-methyl-5-(3-methyl-sulfonylphenyl)-7H-thieno[2,3-b]pyridine-4,6-dione] | A (0%<A<50%) |
| CC1(c2ccc(O)cc2)C(=O)Nc2sc(Cl)c(-c3ccccc3)c2C1=O (stereo not shown) [No 140, 2-chloro-5-(4-hydroxyphenyl)-5-methyl-3-phenyl-7H-thieno[2,3-b]pyridine-4,6-dione] | A (0%<A<50%) |
| COc1ccccc1-c1c(Cl)sc2c1C(=O)C(C)(c1ccc(S(C)(=O)=O)cc1)C(=O)N2 (stereo not shown) [No 141, 2-chloro-3-(2-methoxyphenyl)-5-methyl-5-(4-methyl-sulfonylphenyl)-7H-thieno[2,3-b]pyridine-4,6-dione] | A (0%<A<50%) |
| CC(C)(C)c1ccc(-c2csc3c2C(=O)C(F)(c2ccccc2)C(=O)N3)cc1 (stereo not shown) [No 142, 3-(4-tert-butylphenyl)-5-fluoro-5-phenyl-7H-thieno[2,3-b]pyridine-4,6-dione] | A (0%<A<50%) |
| CC(C)(C)c1ccc(-c2c(Cl)sc3c2C(=O)C(F)(c2ccccc2)C(=O)N3)cc1 (stereo not shown) [No 143, 3-(4-tert-butylphenyl)-2-chloro-5-fluoro-5-phenyl-7H-thieno[2,3-b]pyridine-4,6-dione] | A (0%<A<50%) |
| Cc1ccc(-c2c(Cl)sc3c2C(=O)C(C)(c2cccc(C)c2)C(=O)N3)cc1 (stereo not shown) [No 144, 2-chloro-5-methyl-5-(m-tolyl)-3-(p-tolyl)-7H-thieno[2,3-b]pyridine-4,6-dione] | A (0%<A<50%) |
| COc1ccccc1-c1c(Cl)sc2c1C(=O)C(C)(c1ccccc1)C(=O)N2 (stereo not shown) [No 145, 2-chloro-3-(2-methoxyphenyl)-5-methyl-5-phenyl-7H-thieno[2,3-b]pyridine-4,6-dione] | A (0%<A<50%) |
